The values that follow come from PMC9907956 (Journal of inorganic biochemistry, 2022).

The target of experiment [1] is T1, human CYP11B1 (Homo sapiens, UniProt P15538).
T1 sequence (P15538 25-503): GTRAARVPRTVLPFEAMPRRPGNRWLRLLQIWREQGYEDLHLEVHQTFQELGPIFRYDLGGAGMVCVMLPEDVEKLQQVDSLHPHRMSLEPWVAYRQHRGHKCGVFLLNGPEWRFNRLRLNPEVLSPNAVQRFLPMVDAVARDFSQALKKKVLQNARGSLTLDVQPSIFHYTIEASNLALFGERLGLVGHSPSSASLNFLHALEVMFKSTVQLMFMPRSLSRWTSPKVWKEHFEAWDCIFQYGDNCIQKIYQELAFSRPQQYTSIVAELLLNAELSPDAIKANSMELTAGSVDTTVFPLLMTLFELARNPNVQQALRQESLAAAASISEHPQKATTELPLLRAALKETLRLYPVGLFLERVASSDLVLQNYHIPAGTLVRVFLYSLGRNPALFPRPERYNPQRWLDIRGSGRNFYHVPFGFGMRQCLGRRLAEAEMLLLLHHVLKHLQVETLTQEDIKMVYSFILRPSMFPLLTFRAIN
Put plainly: Spectral ligand binding titration. The settings on record: for Kd: dissociation constant Kd, 1 μM CYP11B1; for Amax: 0.2 μM CYP11B1, 5 cm cuvettes.

For experiment [2], the target named is T2, adrenodoxin-CYP11B1 fusion enzyme (Homo sapiens, UniProt P10109+P15538).
T2 sequence (P10109+P15538 with tags, fused parts or gaps): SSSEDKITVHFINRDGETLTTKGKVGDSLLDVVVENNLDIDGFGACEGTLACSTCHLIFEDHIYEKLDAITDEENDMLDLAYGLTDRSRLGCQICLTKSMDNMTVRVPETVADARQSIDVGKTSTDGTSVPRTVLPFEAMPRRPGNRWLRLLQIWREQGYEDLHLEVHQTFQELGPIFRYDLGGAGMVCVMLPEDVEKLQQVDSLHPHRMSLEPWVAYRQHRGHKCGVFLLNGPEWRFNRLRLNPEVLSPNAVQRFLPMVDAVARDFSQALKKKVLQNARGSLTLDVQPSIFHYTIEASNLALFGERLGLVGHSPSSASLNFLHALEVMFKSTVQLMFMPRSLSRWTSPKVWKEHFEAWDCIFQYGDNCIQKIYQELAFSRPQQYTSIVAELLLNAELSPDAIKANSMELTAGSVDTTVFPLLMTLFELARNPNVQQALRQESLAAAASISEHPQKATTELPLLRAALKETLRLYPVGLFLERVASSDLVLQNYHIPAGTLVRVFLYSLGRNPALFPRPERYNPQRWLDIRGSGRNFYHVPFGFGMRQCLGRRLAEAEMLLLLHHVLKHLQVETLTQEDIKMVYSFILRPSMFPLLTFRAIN
Put plainly: Spectral ligand binding titration of the adrenodoxin-CYP11B1 fusion enzyme.

Experiment [3] concerns the target T1, human CYP11B1. It is filed as biochemical. Particulars: 1:1 condition to 1:40 excess adrenodoxin.
Experiment [4] relates to CYP11B2. Put plainly: CYP11B2 substrate binding with varying adrenodoxin. Also noted: species or system human. The settings on record: over 40-fold range of excess adrenodoxin.
The subject of experiment [5] is CYP11B2. Particulars: increasing adrenodoxin up to 40-fold; ref [8]; cited from earlier work.

For `C[C@]12CCC(=O)C=C1CC[C@@H]1[C@@H]2CC[C@@]2(C)[C@H]1CC[C@]2(O)C(=O)CO` [11-deoxycortisol], the Kd was determined as 12.2 µM in experiment [1] (10-fold excess adrenodoxin), 7.3 µM in experiment [1] (40-fold excess adrenodoxin), 20.8 µM in experiment [1] (equimolar adrenodoxin (1 μM)) and 17 µM in experiment [1] (no adrenodoxin). Also, the “fold increase of Amax/Kd (binding efficiency)” value in experiment [2] (adrenodoxin fused) is “more than 11 fold”. Moreover, the “fold difference of Kd, fusion vs same 1:1 ratio of non-fused proteins” value in experiment [2] (printed as higher) is reported as ~ 5 fold. Moreover, the “fold increase in catalytic efficiency (kcat/Km)” value in experiment [3] is listed as “greater than 11 fold”.

`C[C@]12CC[C@H]3[C@@H](CCC4=CC(=O)CC[C@@]43C)[C@@H]1CC[C@@H]2C(=O)CO` [11-deoxycorticosterone]: the “fold increase of Amax/Kd for CYP11B2” value in experiment [4] is given as “more than 3 fold”. Further, the “fold effect on Km for CYP11B2” value in experiment [5] is on record as 1.6 fold.

Take `N#Cc1ccc([C@H]2CCc3cncn32)c(F)c1` [LCI699, osilodrostat]: the Amax in experiment [1] (1:1 CYP11B1 to adrenodoxin) is 0.015; in experiment [1] (CYP11B1 alone), 0.006.

By Kd is commonly meant a measure of binding affinity in units of concentration. A low value points to tighter binding.
